PMC10141604, “Small-Molecule Inhibition of Androgen Receptor Dimerization as a Strategy against Prostate Cancer” (ACS Central Science, 2023)

How the values were obtained:
GR = target: T1, GR (Homo sapiens, UniProt P04150); experiment: Luciferase reporter assay for GR (HeLa cells); assay type: cell-based; conditions: 10 μM, 1 nM dexamethasone
T1 construct: host or cells: HeLa
T1 sequence (P04150 1-777): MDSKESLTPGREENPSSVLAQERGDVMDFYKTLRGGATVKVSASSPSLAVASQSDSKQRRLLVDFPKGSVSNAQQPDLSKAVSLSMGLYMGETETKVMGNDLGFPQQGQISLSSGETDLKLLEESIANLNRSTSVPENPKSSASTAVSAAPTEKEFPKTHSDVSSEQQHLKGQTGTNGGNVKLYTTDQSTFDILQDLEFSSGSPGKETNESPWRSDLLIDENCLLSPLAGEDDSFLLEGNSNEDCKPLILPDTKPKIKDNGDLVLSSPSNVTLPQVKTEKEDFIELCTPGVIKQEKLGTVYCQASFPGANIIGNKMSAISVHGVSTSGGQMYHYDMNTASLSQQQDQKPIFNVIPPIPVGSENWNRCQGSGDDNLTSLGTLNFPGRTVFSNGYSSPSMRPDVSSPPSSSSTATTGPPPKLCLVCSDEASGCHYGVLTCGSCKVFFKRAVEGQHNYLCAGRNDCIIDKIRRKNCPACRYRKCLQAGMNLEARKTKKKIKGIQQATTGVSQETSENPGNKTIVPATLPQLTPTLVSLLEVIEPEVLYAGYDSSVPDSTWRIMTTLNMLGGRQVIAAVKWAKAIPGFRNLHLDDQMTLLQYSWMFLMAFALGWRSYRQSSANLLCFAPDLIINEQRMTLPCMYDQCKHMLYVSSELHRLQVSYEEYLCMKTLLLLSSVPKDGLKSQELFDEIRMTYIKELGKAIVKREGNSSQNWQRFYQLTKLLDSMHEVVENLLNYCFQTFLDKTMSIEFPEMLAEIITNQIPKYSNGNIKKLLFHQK
Description: (§1) calculating volume (V= 0.5 × L × W2). Finally, the mice were sacrificed and the tumors were harvested for hematoxylin and eosin (H&E) staining.
(§2) Luciferase Reporter Assays for PR, GR, and MR
Addgene), 24 ng pGL4.36[luc2P MMTV Hygro] (Promega) and 5 ng Renilla using HG- […]
Addgene), 24 ng pGL4.36[luc2P MMTV Hygro] (Promega) and 5 ng Renilla using lip3000 transfection reagent (#L3000075, Thermofisher) for 24 h. For MR induction, HEK293T (1 × 10^4 cells/well) were transfected with 71 ng pCMV-MR gifted by Liu et al. 28, 24 ng of pGL4.36[luc2P MMTV Hygro] (Promega) and 5 ng Renilla using lip3000 transfec tion reagent for 24 h. For the antagonistic models, 10 nM /well progesterone for PC3 cells , 1 nM/well dexamethasone for HeLa, and 5 nM/well aldosterone for HEK293T cells were added to stimulate the cells. Meanwhile, each cell line was treated […]
For the agonistic models, the cells were directly treated with the compounds without any hormones. […]
hormones progesterone, dexamethasone, and aldosterone were considered as agonists for PR, GR, and MR, respectively. The luciferase activities were assessed using the Dual-Glo Luciferase system (#E1910, Promega).
Cell Cycle and Apoptosis for LNCaP cells
LNCaP were cultured in 6-well plate with 5× 10^5 cells/well, after incubated at 37 °C for […]
(§3) Cell cycle were determined after 48 h incubation by Cell Cycle Staining Kit (#CCS012, MULTI SCIENCES) using […]

[1] = system: human gastric epithelial cell (GES-1); experiment: MTT cell viability assay, GES-1; assay type: cell-based; conditions: 72 h
Description: (§4) 3-(4,5-dimethythiazol-2-yl)-2,5-diphenyl-2-H-tetrazolium bromide (MTT) colorimetric assay was employed to investigate cell viability. Cells were seeded into 96-well plates with 2-5× 10^3 cells per well (5× 10^3 cells/well for LNCaP, 22RV1, NIH-3T3, GES-1, Chang, […]
(§5) NCI-H1299, U2OS, U87) for 1 day incubation at 37 °C. Then, the cells were treated with various concentrations of compounds (22.86 nM - 50 μM) and incubated for 72 h. Then, 10 μl MTT (5 mg/ml) was added into each well and incubated for 4 h. Afterwards, 100 μl of triplex 10% SDS-0.1% HCl-phosophate-buffered saline (PBS) solutions was added into each well and incubated for overnight. The absorbance at 570 nm was measured (Eon, Bioteck, Winooski, VT). […]

NIH-3T3 = experiment: MTT cell viability assay, NIH-3T3; assay type: cell-based, murine; conditions: 72 h
Description: as §4, §5

LNCaP cell line = experiment: Cell cycle and apoptosis of LNCaP cells (flow cytometry); assay type: cell-based
Description: as §1, §2
PC3, HeLa, and HEK293T cells were cultured using 5% CSS RPMI-1640, 5% CSS RPMI-1640 and 10% FBS DMEM media in 96-well plates for 24 h, respectively. For PR induction, PC3 (1 × 10^4 cells/well) were transfected with 50 ng pcDNA3-PRB (#89130, Addgene), 24 ng pGL4.36[luc2P MMTV Hygro] (Promega) and 5 ng Renilla using HG-TransGeneTM transfection reagent (#TG-10012, Genomeditech) for 4 h. […] The luciferase activities were assessed using the Dual-Glo Luciferase system (#E1910, Promega). […]
as §3
Cytomic FC 500MCL flow cytometer (Beckman Coulter, Inc). Cell apoptosis were determined after 24 h incubation by Annexin V-FITC/PI apoptosis kit (#AP101, MULTI SCIENCES) using BD FACS S ORP ARIA II flow cytometer (BD Biosciences).
Graphpad Prism (v.8.4) program was adopted for statistical analysis and data were presented as the mean ± standard error of mean (SEM). The value of p was determined on the basis of at least three independent assays using Student’s t-test, one-way ANOVA or two-way ANOVA analysis.

## CC(=O)Cc1nsc(NC(=O)c2cc(-c3cccc(C(F)(F)F)c3)oc2C)n1 [Compound M17-B15]
GR
  GR antagonistic activity: largely ineffective
[1]
  cytotoxicity against GES-1: negligible cytotoxicity
NIH-3T3
  cytotoxicity against NIH-3T3: negligible cytotoxicity
LNCaP cell line
  impact on cell cycle and apoptosis: do not show an obvious impact

## CNC(=O)c1ccc(N2C(=S)N(c3ccc(C#N)c(C(F)(F)F)c3)C(=O)C2(C)C)cc1F [Enz, enzalutamide, reference compound]
GR
  GR antagonistic activity: largely ineffective
[1]
  cytotoxicity against GES-1: negligible cytotoxicity
NIH-3T3
  cytotoxicity against NIH-3T3: negligible cytotoxicity
LNCaP cell line
  impact on cell cycle and apoptosis: do not show an obvious impact
